{
  "source": "patent US6737407B1",
  "about": "“Treatment of obesity” (Metabolic Pharmaceuticals, Ltd., priority 1997, dated 2004)",
  "key": {"[1]": {"tested_on": "Human Abdominal adipose Tissue", "test": "Antilipogenic activity in human abdominal adipose tissue", "format": "cell-based", "conditions": "0.1 μM peptide; BSA + insulin", "description": "The rate of the incorporation of exogenous [C^14]-glucose into total lipid in adipose tissue was measured as the index of anti-lipogenic activity of hGH 177-191.\nAdipose tissues were sliced into segments of approximately 200 mg each and then placed in Krebs-Ringer bicarbonate (KRB) buffer (pH 7.4) containing 2% defatted BSA, and glucose (0.1 mg/ml) and gassed with 95% O2-5% CO2 at 37° C. After 1 hr preincubation, the tissues were transferred to another 2 ml of fresh media containing [C^14]-glucose (final specific activity 0.05 μCi/μmol), […] of insulin (0.1 mU/ml) for a further 90 min incubation (conditions as above). Then the tissues were removed, washed thoroughly with KRB buffer and lipid was extracted with 5 ml of chlorofom/methanol (2:1, v/v) The extraction solution was washed with 2 ml of MeOH-H2O solution containing 0.1% MgCl2. A 2.5 ml aliquot of the washed extraction solution was taken and transferred to scintillation vials. The [C^14] radioactivity was measured with a liquid scintillation counter. The rates of total lipid synthesis were expressed as μmol [C^14]-glucose incorporated into lipid/g tissue/hr.\n(§1) Tables 6 and 7 show the in vitro antilipogenic and lipolytic activity of hGH 177-191 and two representative analogues (Ref Nos. 9604 and 9605) on human adipose tissue."}, "[2]": {"tested_on": "Human Subcutaneous adipose Tissue", "test": "Lipolytic activity in human subcutaneous adipose tissue", "format": "cell-based", "conditions": "0.5 μM peptide", "description": "Adipose tissues were removed from animals and sliced into segments of approximately 200 mg each. Then the tissues were pre-incubated in 25 ml vials containing 2 ml of Krebs-Ringerbicarbonate (KRB) buffer, 4% defatted BSA and 5.5 mM glucose under an atmosphere of carbogen (95%O2/ 5%CO2) at 37° C. for 1 hour. Tissues were then transferred to another vials with fresh medium and the incubation was initiated by adding hGH 177-191 peptide or analogues into the vials. The mixtures were then incubated at 37° C. for 90 minutes. After incubation, the tissues wee removed and aliquots (200 μl) of samples withdrawn from the medium were assayed for the contents of glycerol or free fatty acid (FFA) either by the enzyme assay (glycerol kinase) or calorimetric (copper-dye) spectrometry. The NADH or color produced was then monitored by the absorption at 340 nm and 610 nm, respectively.\nas §1"}, "[3]": {"tested_on": "isolated adipose tissues of C57BL/6J (ob/ob) mice", "test": "Oxidation of free fatty acid in isolated adipose tissues", "format": "cell-based, mouse", "conditions": "adipose tissues isolated from obese animals, FIG. 7", "description": "FIG. 7 illustrates the in vitro effect of hGH 177-191 on fatty acid oxidation in isolated adipose tissues of C57BL/6J (ob/ob) mice with the determination of the rate of [C^14]O2 production from [C^14]-palmitic acid. The rate of [C^14]-palmitic acid oxidation was expressed as μmol/g tissue/hr.\nThe effect of hGH 177-191 or analogues on the free fatty acid (FFA) oxidation in the adipose tissues is evaluated by the measure of converted [C^14]O2 from C^14-palmitic acid. The [C^14]O2 a final product of FFA oxidation, was trapped by hyamine hydroxide and measured by liquid scintillation counter. The rate of FFA oxidation was then determined by [C^14] radioactivity.\nAdipose tissues removed from laboratory animals were sliced into segments of approximately 200 mg each. The tissues in 25 ml vials containing 2 ml of Krebs-Ringer phosphate (KRP) buffer, and 2% defatted bovine serum albumin (BSA) were pre-incubated at 37° C. for 30 minutes under an atmosphere of carbogen (95%O2/5%CO2) Then the tissues were transferred to Konte flasks with fresh incubation medium with 0.15 mM sodium [C^14]-palmitate (final [C^14]-specific activity, 0.20 μCi/μmol) and hGH 177-191 peptide or analogues (1-1000 nM). […] The [C^14] radioactivity was measured with a liquid scintillation counter. The rate of [C^14]-palmitic acid oxidation to [C^14]O2 was calculated and expressed as μmol/g tissue/hr."}},
  "note": "Where no end group is shown, it is not given here.",
  "data": [
    {"sequence": "LRIVQCRSVEGSCGF (cysteine pairing not given here) [Ref No. 9401]", "values": [
      {"measurement": "14C incorporation", "setting": "[1]", "result": "40 ± 3", "unit": "Av DPM/mg tissue/hour"},
      {"measurement": "Glycerol released", "setting": "[2]", "result": "1000 ± 80", "unit": "nmol/mg tissue/hour"},
      {"measurement": "oxidation of fatty acids (in words)", "setting": "[3]", "result": "enhanced"}
    ]}
  ]
}
